Among the data in patent publication EP3763715A1, “HARRINGTONINES SALTS, IN PARTICULAR RETINOATES, THEIR PROCESS OF PREPARATION AND THEIR USES IN THE TREATMENT OF LEUKEMIAS, CANCERS, AUTOIMMUNE, SKIN, ALZHEIMER'S AND INFLAMMATORY BOWEL DISEASES AND VIRAL INFECTIONS, COMBINED WITH MYELOPOIESIS STIMULATING AGENTS” (Robin, Jean-Pierre, priority 2019, dated 2021) are IC50 values, retold here.

Where only a bound is given, the exact number is not on record here.

Format in all cases: cell-based, human
Experiment [1] concerns K562 cell line. The experiment is described as follows: Testing on K562 leukemia cell line (MTT cytotoxicity). As to conditions: K562 cells, 72 h incubation, preliminary screening, read-out: K562 (CML) IC50. The procedure: (§1) Retinoates of harringtonines described in this invention were tested on K562 cell line which is derived from the pleural effusion of a person with chronic myelogenous leukemia (CML, bcr-abl positive) in terminal blast crises (Lozzio and Lozzio, Blood, 1975, p321). The cell line was purchased from ATCC (American Tissue Culture Collection) and grown in RPMI medium supplemented with 10% heat-inactivated fetal calf serum, 2 mmol/L glutamine, […] penicillin and […] streptomycin. All tested products were initially dissolved in 2N HCl (pH=2) (alkaloid base) or in aqueous solvent (salt) or in DMSO (retinoids), supplemented with ultrasound treatment during 1 h. Working concentrations were made by dilution in culture medium (pH 7). Cells in exponential growth phase were placed into 96-microwell plates in concentration 3x10^4/mL (total volume 200 µL/well) and incubated with drugs for 72 h at 37° C. in 5% CO2 humidified atmosphere. Following incubation, 28 µL of MTT 3-(4,5 dimethylthiazol-2-yl)-2,5 tetrazolium bromide] dye solution (Sigma, St. Louis, Mo.) was added to each well. During the following 6 h of incubation at 37° C., the purple formazan product was formed by conversion of the yellow MTT salt in the mitochondria of the viable cells. The resulting precipitate was dissolved in DMSO and the amount of converted MTT was quantified in an ELISA reader (MR 5000, Dynatech). Each product was tested in triplicate (3x8 wells). Every test contained at least one plate with HHT as control, added in the same concentration as the tested products.

Experiment [2] deals with MDA-MB-468. The experiment is described as follows: Testing on breast cancer cell lines, sulforhodamine B (SRB) cell viability assay. To be noted: MDA-MB-468 breast cancer cells, preliminary screening, read-out: M DA-MB-468 (BC) IC50. Here is the method:
Operating Procedure were performed as described in the recent paper of Yakhni et al [Yakhni AM J CANCER RES 2019; 9(5) in press "Homoharringtonine, on approved anti-leukemia drug, suppresses triple negative breast cancer growth through a rapid reduction of anti-apoptotic protein abundance"]
The cell lines used in this study were MDA-MB-231 (ATCC® HTB-26™), MDA-MB-468 (ATCC® HTB-132™), MDA-MB-157 (ATCC® HTB-24™) and CAL-51. Those lines were chosen to represent the BRCA1/2 non-mutated TNBC transcriptomic subtypes, currently most in need of efficacious treatment due to lower sensibility of BRCA1 wild-type TNBC to the DNA-damaging chemotherapy (Masuda et al., Clin Cancer Res. 2013, p5533; Jiang et al., PLoS Med. 2016, pe1002193; Park et al. ESMO Open. 2018, pe000357). CAL-51 line represents the mesenchymal transcriptomic subtype whereas MDA-MB-157 and MDA-MB-231 represent the mesenchymal stem-like subtype (Lehmann et al. J Clin Invest. 2011, p2750). MDA-MB-468 was used as a model of aggressive, PTEN-negative TNBC, with hyperactivated EGFR signaling pathway due to EGFR amplification (Filmus et al., Biochem Biophys Res Commun. 1985, p898). MDA-MB-468 transcriptome classifies it into the basal-like 1 subtype (49). The MDA lines were purchased from the American Type Culture Collection (ATCC, Manassas, VA, USA). The CAL-51 was kindly provided by Dr Gerard Milano, from the Centre Antoine Lacassagne, Nice, France, where the line has been established (Gioanni et al., Br J Cancer 1990, p8). After initial expansion, the cell line stock vials were conserved, in liquid nitrogen, at the Biological Resource Center of Jean Perrin Comprehensive Cancer Center (biobank ID BB-0033-00075, Clermont-Ferrand, France). The MDA cell lines were cultured in the Leibovitz L-15 medium, whereas CAL-51 line was maintained in DMEM (both media from Invitrogen Life Technologies, Carlsbad, CA, USA). The media were supplemented with 10% heat-inactivated fetal bovine serum and […] gentamicin. CAL-51 line was kept at 37°C, in a humidified atmosphere with 5% CO2; the MDA lines were kept under the same conditions, however, without CO2, in a free gas exchange with atmospheric air. All cell lines were maintained in monolayer culture, in the sub-confluent status, with no more 30 passages of the cells thawed from the stock vial.
Homoharringtonine was supplied by LeukePharma Inc. (Houston, TX, USA) as water-soluble, crystalline tartaric acid salt. Initial stock solution of HHT-tartrate was prepared at 10 mM in sterile deionized water, aliquoted and kept at -80°C. For each experiment, a fresh HHT solution was prepared by dissolving the HHT stock in phosphate-buffered saline (PBS, GIBCO™, Invitrogen, Cergy-Pontoise, France).
Cell viability was assessed using the sulforhodamine B (SRB) assay (Sigma-Aldrich, St Louis, MO, USA) according to the method described by Vichai and Kirtikara (Nat Protoc. 2006, p1112). Cells were seeded in 96-well plates, at 5x10^3 or 1x10^3 cells/well (the MDA cell lines and CAL-51, respectively), left overnight to adhere and then treated with growing concentrations of HHT for 24h, 48h or 72h. After incubation with the drug, cells were washed twice with PBS and left for 72 h in the corresponding complete culture medium. Then the cells were fixed with trichloroacetic acid (final concentration 10%) at 4°C for 1 h, followed with plate washing with water five times, air drying and staining with 0.4% SRB dissolved in 1% acetic acid, at room temperature, for 30 min. The plates were subsequently washed four times with 1% acetic acid to remove unbound stain. To solubilize the protein-bound dye, 10 mM Tris base solution was added to each well. The cell viability, estimated through the present protein biomass, was determined by measuring optical density of the dye, using a spectrophotometer at wavelength of 540 nm (BMG Labtech, Ortenberg, Germany).
Preliminary screening using these tumor cell lines are gathered in table 1.

Experiment [3] has as its system HL-60 cell line. The experiment is described as follows: Testing on HL-60 leukemia cell line (MTT cytotoxicity). As to conditions: HL-60 cells, medium with 20% fetal bovine serum, preliminary screening, read-out: HL60 (APL) IC50. The procedure: as §1
Retinoates of harringtonines described in this invention were tested on HL-60 cell line, derived from acute promyelocytic leukemia (APL) cells. HL-60 is a promyelocytic cell line derived by S.J. Collins, et al. (Proc. Natl. Acad. Sci. USA 1978 p2458). Peripheral blood leukocytes were obtained by leukopheresis from a person with APL (Gallagher R, et al. Blood 1978, p713) The cell line was purchased from ATCC (American Tissue Culture Collection) and the base growth medium was also completed with fetal bovine serum but at a final concentration of 20%, otherwise the same method than the one of example 10 was used.
Preliminary screening using this tumor cell lines are gathered in table 1.

Turning to `CC1=C(/C=C/C(C)=C/C=C/C(C)=C/C(=O)O)C(C)(C)CCC1.COC(=O)C[C@](O)(CCCC(C)(C)O)C(=O)O[C@@H]1C(OC)=C[C@]23CCCN2CCc2cc4c(cc2[C@H]13)OCO4` (relative stereo) [Example 1, homoharringtonine all-trans-retinoate], the IC50 is less than 50 nM in experiment [1], less than 50 nM in experiment [2] and less than 100 nM in experiment [3].

Turning to `CC1=C(/C=C/C(C)=C/C=C/C(C)=C/C(=O)O)C(C)(C)CCC1.COC(=O)C[C@@]1(C(=O)O[C@@H]2C(OC)=C[C@]34CCCN3CCc3cc5c(cc3[C@H]24)OCO5)CCCC(C)(C)O1` (relative stereo) [Example 18, Anhydrohomoharringtonine all-trans-retinoate], the 50% inhibitory concentration (IC50) in experiment [1] was less than 50 nM; in experiment [2] it was less than 50 nM; in experiment [3], less than 100 nM.

For the compound `CC(C=CC1=C(C)CCCC1(C)C)=CC=CC(C)=CC(=O)O.COC(=O)CC(O)(CCC(C)(C)O)C(=O)OC1C(OC)=CC23CCCN2CCc2cc4c(cc2C13)OCO4` (stereo not drawn) [Example 2, harringtonine all-trans-retinoate], the half-maximal inhibitory concentration (IC50) in experiment [1] is less than 100 nM; in experiment [3], greater than 100 nM.

For `CC(C=CC1=C(C)CCCC1(C)C)=CC=CC(C)=CC(=O)O.COC(=O)CC(O)(CCCC(C)(C)O)C(=O)OC1C(OC)=CC23CCCN2CCc2cc4c(cc2C13)OCO4` (stereo not drawn) [Example 3, homoharringtonine 13-cis-retinoate], the half-maximal inhibitory concentration (IC50) in experiment [1] is less than 50 nM.

Turning to `COC(=O)CC(O)(CCCC(C)(C)O)C(=O)OC1C(OC)=CC23CCCN2CCc2cc4c(cc2C13)OCO4.COc1cc(C)c(C=CC(C)=CC=CC(C)=CC(=O)O)c(C)c1C` (stereo not drawn) [Example 4, homoharringtonine "acitretinoate"], the IC50 is less than 50 nM in experiment [1] and less than 100 nM in experiment [3].

On to `CC1(C)CCC(C)(C)c2cc(NC(=O)c3ccc(C(=O)O)cc3)ccc21.COC(=O)CC(O)(CCCC(C)(C)O)C(=O)OC1C(OC)=CC23CCCN2CCc2cc4c(cc2C13)OCO4` (stereo not drawn) [Example 5, homoharringtonine tamibarotenoate], for which the concentration for half-maximal inhibition (IC50) in experiment [1] was less than 20 nM; in experiment [2] it was less than 20 nM; in experiment [3] it was less than 50 nM.

For `COC(=O)CC(O)(CCCC(C)(C)O)C(=O)OC1C(OC)=CC23CCCN2CCc2cc4c(cc2C13)OCO4.O=C(O)C=Cc1ccc(-c2ccc(O)c(C34CC5CC(CC(C5)C3)C4)c2)cc1` (stereo not drawn) [Example 6, homoharringtonine "adarotenoate"], the 50% inhibitory concentration (IC50) in experiment [1] is less than 50 nM; in experiment [3], less than 100 nM.

`C=C(c1ccc(C(=O)O)cc1)c1cc2c(cc1C)C(C)(C)CCC2(C)C.COC(=O)C[C@](O)(CCCC(C)(C)O)C(=O)O[C@@H]1C(OC)=C[C@]23CCCN2CCc2cc4c(cc2[C@H]13)OCO4` [Example 7, homoharringtonine "bexarotenoate"]: the IC50 in experiment [1], in experiment [2] and in experiment [3] was less than 20 nM in each case.

Take `COC(=O)C[C@](O)(CCCC(C)(C)O)C(=O)O[C@@H]1C(OC)=C[C@]23CCCN2CCc2cc4c(cc2[C@H]13)OCO4.COc1ccc(-c2ccc3cc(C(=O)O)ccc3c2)cc1C12CC3CC(CC(C3)C1)C2` [Example 8, homoharringtonine "adapalenoate"]: the half-inhibitory concentration (IC50) in experiment [1] is less than 50 nM; in experiment [2], less than 50 nM; in experiment [3], less than 100 nM.

As to `COC(=O)C[C@](O)(CCC(C)(C)O)C(=O)O[C@@H]1C(OC)=C[C@]23CCCN2CCc2cc4c(cc2[C@H]13)OCO4.COc1ccc(-c2ccc3cc(C(=O)O)ccc3c2)cc1C12CC3CC(CC(C3)C1)C2` [Example 9, harringtonine "adapalenoate"], the IC50 in experiment [1] is less than 100 nM.

For the compound `CC(=Cc1ccc(C(=O)O)cc1)c1ccc2c(c1)C(C)(C)CCC2(C)C.COC(=O)CC(O)(CCCC(C)(C)O)C(=O)OC1C(OC)=CC23CCCN2CCc2cc4c(cc2C13)OCO4` (stereo not drawn) [Example 13, homoharringtonine arotinoate], the IC50 in experiment [1] was less than 50 nM.

As for `CC(=Cc1ccc(C(=O)O)cc1)c1ccc2c(c1)C(C)(C)CCC2(C)C.COC(=O)CC(O)(CCC(C)(C)O)C(=O)OC1C(OC)=CC23CCCN2CCc2cc4c(cc2C13)OCO4` (stereo not drawn) [Example 14, harringtonine arotinoate], the half-maximal inhibitory concentration (IC50) in experiment [1] was less than 100 nM.

As for `COC(=O)CC(O)(CCCC(C)(C)O)C(=O)O[C@@H]1C(OC)=C[C@]23CCCN2CCc2cc4c(cc2[C@H]13)OCO4.Cc1ccc(C2=CCC(C)(C)c3ccc(C#Cc4ccc(C(=O)O)cc4)cc32)cc1` (stereo partly drawn) [Example 16, Butanedioic acid, 2-hydroxy-2-(4-hydroxy-4-methylpentyl)-, 1-[(1S,3aR,14bS)-1,5,6,8,9,14b-hexahydro-2-methoxy-4H-cyclopenta[a][1,3]dioxolo[4,5-h]pyrrolo[2,1-b][3]benzazepin-1-yl]4-methyl ester, 4-[[5,6-dihydro-5,5-dimethyl-8-(4-methylphenyl)-2-naphthalenyl]ethynyl]benzoate], the results for the IC50 in experiment [1] and in experiment [3] were less than 50 nM and less than 100 nM, respectively.

As for `COC(=O)CC(O)(CCC(C)(C)O)C(=O)OC1C(OC)=CC23CCCN2CCc2cc4c(cc2C13)OCO4.COc1cc(C)c(C=CC(C)=CC=CC(C)=CC(=O)O)c(C)c1C` (stereo not drawn) [Example 17, harringtonine acitretinate], the 50% inhibitory concentration (IC50) is less than 50 nM in experiment [1] and less than 100 nM in experiment [3].

Consider `COC(=O)CC1(C(=O)OC2C(OC)=CC34CCCN3CCc3cc5c(cc3C24)OCO5)CCCC(C)(C)O1.COc1cc(C)c(C=CC(C)=CC=CC(C)=CC(=O)O)c(C)c1C` (stereo not drawn) [Example 19, anhydrohomoharringtonine "acitretinoate"], for which the concentration for half-maximal inhibition (IC50) in experiment [1] and in experiment [2] was greater than 100 nM each time.

Consider OP5215 all-trans-retinoate [Example 24], for which the 50% inhibitory concentration (IC50) was less than 50 nM in experiment [1] and less than 100 nM in experiment [3].
